# In US20060276407A1, “Methods of treating hepatitis C virus” (Schering Corporation, priority 2005, published 2006):
# Several values for one entry are separate records, joined by “and”; a condition that tells them apart may be missing. Identical values can stand only once. Like-named read-outs stand apart in the source and are kept apart here.
# Key:
# [1] = Food-effect crossover bioavailability study, 600 mg fed vs fasted, healthy adult subjects (Example 2); type: in vivo, human; details: for Plasma concentration at 8 hours / Plasma concentration at 12 hours: individual subjects; for concentration at 8 hours / concentration at 12 hours / Vd/F / AUC / Cmax / half-life / Tmax: both sexes, human, plasma, po, 600 mg; for half-life: read-out: t½ (converted); for Tmax: median (range)
# Description: This was a randomized, open-label, single-dose, two-treatment (fed or fasted), two-period, two-sequence crossover study of the effect of food on the bioavailability of compound of Formula Ia in 23 healthy adult male and female subjects. The primary pharmacokinetic parameters were AUC(l) and Cmax for compound of Formula Ia. The study included a 7-day wash-out period between treatment periods.
# Subjects were confined at the study site at least 14 hours prior to each treatment (Day −1). On the morning of Day 1, following a 10-hour overnight fast, subjects were randomized to receive in a particular order Treatment A and Treatment B: • Treatment A: compound of Formula Ia 600 mg (6×100 mg capsules) PO following an overnight fast. • Treatment B: compound of Formula Ia 600 mg (6×100 mg capsules) PO within 20 minutes following the completion of a standard high-fat breakfast. There was a 7-day wash-out period between receiving treatments.
# Subjects receiving Treatment A received a formulation of compound of Formula Ia comprised of compound of Formula Ia and a pharmaceutically acceptable carrier, such as microcrystalline cellulose, while continuing to fast, while subjects randomized to Treatment B consumed a standardized high-fat meal prior to compound administration (within 20 minutes prior to the compound administration). The capsules along with approximately 240 mL of water were swallowed whole, not chewed or crushed. […] Water was permitted as desired except for 1 hour before and after compound administration. A washout period of at least 7 days separated the two treatment periods. Upon return to the clinic, subjects underwent the same procedures as the first period and continued the randomization sequence (subjects who received compound of Formula Ia fasted in Period 1 and then received compound of Formula Ia under fed conditions in Period 2, and vice versa).
# Blood samples (7 mL each) for the determination of compound of Formula Ia levels were drawn immediately prior to dosing (0 hour), and at 0.5, 1, 1.5, 2, 2.5, 3, 4, 5, 6, 8, 12, 24, 36, and 48 hours after dosing. The blood samples were collected into tubes containing EDTA. The samples were centrifuged at 1500 g for 10 minutes to obtain plasma and the plasma samples were frozen at −20° C. and maintained in the frozen state until assayed.
# Plasma concentrations of compound of Formula Ia were determined using a validated liquid chromatography tandem mass spectrometry (LC-MS/MS) method. The assay lower limit of quantitation (LLOQ) was 0.50 ng/mL and the method was validated over the concentration range of 0.50 to 1000 ng/mL.
# The mean and percent coefficient of variation (% CV) were calculated for plasma concentrations of compound of Formula Ia at each time point. Concentration values less than the assay LLOQ were reported as, and set to zero in the tables and calculations. The plasma concentration-time data for compound of Formula Ia were subjected to pharmacokinetic analysis by noncompartmental methods using WinNonlin software. Nominal sampling times were used for pharmacokinetic analysis, since none of the pharmacokinetic sampling time deviations were >10% of the nominal times. For each subject, the following pharmacokinetic parameters were determined for compound of Formula Ia: maximum plasma concentration (Cmax), time of maximum observed plasma concentration (Tmax), the final quantifiable sampling time (tf), area under the plasma concentration-time curve from time 0 to tf (AUC[tf]), AUC(l) (AUC[tf]+ C[tf]estimated/K) and Vd/F. The K and C(tf)estimated are defined as terminal elimination rate constant and estimated concentration at final quantifiable sample, respectively. Terminal phase half-life (t½=ln 2/K) and apparent clearance (CLUF=Dose/AUC[l]) were also determined. Cmax, Tmax and tf were the observed values. […]
# [2] = system: bicistronic subgenomic replicon (genotype 1b); assay: Bicistronic subgenomic replicon suppression, 72 hour assay in HuH-7 cells; type: cell-based, HCV; details: Hepatitis C virus
# Text: NS3-mediated cleavage of the HCV polyprotein releases functional viral proteins essential for viral propagation. Therefore, blockage of NS3 protease activity by compound of Formula Ia is expected to inhibit viral replication in infected host cells.
# [3] = 600 mg PO, fasted, mean, balanced data
# [4] = 600 mg PO, fed (high-fat breakfast), mean, balanced data
# [5] = 600 mg PO, standardized high-fat meal
smiles,measurement,setting,value
"CC(C)(C)NC(=O)N[C@H](C(=O)N1C[C@H]2[C@@H]([C@H]1C(=O)NC(CC1CCC1)C(=O)C(N)=O)C2(C)C)C(C)(C)C (mixture of isomers) [Formula Ia, (1 R, 5S)-N-[3-Amino-1-(Cyclobutylmethyl)-2,3-Dioxopropyl]-3-[2(S)-[[[(1,1-Dimethylethyl)Amino]Carbonyl]Amino]-3,3-Dimethyl-1-Oxobutyl]-6,6-Dimethyl-3-Azabicyclo[3.1.0]Hexan-2(S)-Carboxamide]","Apparent mean Vd/F, fed versus fasted states",[1]; 600 mg PO,about five
same,"Median concentration at the 8-hour time point, fed state relative to fasted state",[1]; 600 mg PO,more than 4 fold
same,"Median concentration at the 12-hour time point, increase in fed state relative to fasted state",[1]; 600 mg PO,2 fold
same,AUC(l) Ratio Estimate (fed to fasted),"[1]; 600 mg PO, Female (n = 10)",225%
same,AUC(tf) Ratio Estimate (fed to fasted),"[1]; 600 mg PO, Female (n = 10)",229%
same,Cmax Ratio Estimate (fed to fasted),"[1]; 600 mg PO, Female (n = 10)",170%
same,AUC(l) Ratio Estimate (fed to fasted),"[1]; 600 mg PO, Male (n = 10)",202%
same,AUC(tf) Ratio Estimate (fed to fasted),"[1]; 600 mg PO, Male (n = 10)",205%
same,Cmax Ratio Estimate (fed to fasted),"[1]; 600 mg PO, Male (n = 10)",155%
same,Plasma concentration at 8 hours,"[1]; 600 mg PO, fasted",37.5 ng/mL and 18.7 ng/mL and 37.4 ng/mL and 13.4 ng/mL and 77.9 ng/mL and 39.0 ng/mL and 46.6 ng/mL and 50.0 ng/mL and 66.8 ng/mL and 19.3 ng/mL and 8.50 ng/mL and 27.3 ng/mL and 24.8 ng/mL and 24.1 ng/mL and 81.3 ng/mL and 58.0 ng/mL and 33.5 ng/mL and 28.7 ng/mL and 27.8 ng/mL
same,Plasma concentration at 12 hours,"[1]; 600 mg PO, fasted",20.9 ng/mL and 8.12 ng/mL and 27.0 ng/mL and 4.90 ng/mL and 21.3 ng/mL and 16.3 ng/mL and 18.3 ng/mL and 20.6 ng/mL and 11.4 ng/mL and 4.46 ng/mL and 3.11 ng/mL and 13.2 ng/mL and 9.56 ng/mL and 19.6 ng/mL and 26.6 ng/mL and 14.3 ng/mL and 9.33 ng/mL and 9.50 ng/mL and 10.7 ng/mL
same,CL/F,[1]; [3],393 L/h
same,CL/F,[1]; [4],179 L/h
same,Plasma concentration at 8 hours,"[1]; 600 mg PO, fed",33.8 ng/mL and 62.2 ng/mL and 190 ng/mL and 92.4 ng/mL and 442 ng/mL and 81.4 ng/mL and 54.3 ng/mL and 675 ng/mL and 392 ng/mL and 949 ng/mL and 46.1 ng/mL and 426 ng/mL and 283 ng/mL and 55.6 ng/mL and 164 ng/mL and 612 ng/mL and 54.8 ng/mL and 447 ng/mL and 33.6 ng/mL
same,Plasma concentration at 12 hours,"[1]; 600 mg PO, fed",7.34 ng/mL and 11.2 ng/mL and 27.8 ng/mL and 13.6 ng/mL and 37.2 ng/mL and 13.9 ng/mL and 33.5 ng/mL and 384 ng/mL and 184 ng/mL and 54.2 ng/mL and 6.70 ng/mL and 22.2 ng/mL and 140 ng/mL and 10.4 ng/mL and 87.3 ng/mL and 109 ng/mL and 9.17 ng/mL and 48.8 ng/mL and 7.09 ng/mL
same,AUC(l) Ratio Estimate (fed to fasted),"[1]; 600 mg PO, n = 20",214%
same,AUC(tf) Ratio Estimate (fed to fasted),"[1]; 600 mg PO, n = 20",217%
same,Cmax Ratio Estimate (fed to fasted),"[1]; 600 mg PO, n = 20",162%
same,Increase of Cmax in the fed state,[1]; [5],62%
same,Increase of mean relative bioavailability (AUC) in the fed state relative to fasted,[1]; [5],over 100%
same,Safety profile (treatment emergent and treatment related AEs),"[1]; 600 mg oral dose, both fed and fasted states",low frequency of treatment emergent and treatment related AEs
same,concentration at 8 hours,"[1]; 600 mg PO, fasted, Max",81.3 ng/mL
same,concentration at 12 hours,"[1]; 600 mg PO, fasted, Max",27 ng/mL
same,concentration at 8 hours,"[1]; 600 mg PO, fasted, Min",8.5 ng/mL
same,concentration at 12 hours,"[1]; 600 mg PO, fasted, Min",3.11 ng/mL
same,concentration at 8 hours,"[1]; 600 mg PO, fasted, mean",37.9 ng/mL
same,concentration at 12 hours,"[1]; 600 mg PO, fasted, mean",14.2 ng/mL
same,Vd/F,[1]; [3],6730 L
same,AUC,"[1]; 600 mg PO, fasted, mean, balanced data, read-out: AUC(l)",1750 ng·h/mL
same,AUC,"[1]; 600 mg PO, fasted, mean, balanced data, read-out: AUC(tf)",1720 ng·h/mL
same,Cmax,"[1]; 600 mg PO, fasted, mean, balanced data, read-out: Cmax",448 ng/mL
same,half-life,[1]; [3],720 min
same,concentration at 8 hours,"[1]; 600 mg PO, fasted, median",33.5 ng/mL
same,concentration at 12 hours,"[1]; 600 mg PO, fasted, median",13.2 ng/mL
same,Tmax,"[1]; 600 mg PO, fasted, balanced data",2 h
same,AUC,"[1]; 600 mg PO, fasted, n = 20, read-out: AUC(l), model-based (least square) mean",1650 ng·h/mL
same,AUC,"[1]; 600 mg PO, fasted, n = 20, read-out: AUC(tf), model-based (least square) mean",1620 ng·h/mL
same,Cmax,"[1]; 600 mg PO, fasted, n = 20, read-out: Cmax, model-based (least square) mean",418 ng/mL
same,Vd/F,[1]; [4],1150 L
same,AUC,"[1]; 600 mg PO, fed (high-fat breakfast), mean, balanced data, read-out: AUC(l)",3700 ng·h/mL
same,AUC,"[1]; 600 mg PO, fed (high-fat breakfast), mean, balanced data, read-out: AUC(tf)",3660 ng·h/mL
same,Cmax,"[1]; 600 mg PO, fed (high-fat breakfast), mean, balanced data, read-out: Cmax",790 ng/mL
same,half-life,[1]; [4],283 min
same,Tmax,"[1]; 600 mg PO, fed (high-fat breakfast), balanced data",5 h
same,concentration at 8 hours,"[1]; 600 mg PO, fed, Max",949 ng/mL
same,concentration at 12 hours,"[1]; 600 mg PO, fed, Max",384 ng/mL
same,concentration at 8 hours,"[1]; 600 mg PO, fed, Min",33.6 ng/mL
same,concentration at 12 hours,"[1]; 600 mg PO, fed, Min",6.7 ng/mL
same,concentration at 8 hours,"[1]; 600 mg PO, fed, mean",268 ng/mL
same,concentration at 12 hours,"[1]; 600 mg PO, fed, mean",63.5 ng/mL
same,concentration at 8 hours,"[1]; 600 mg PO, fed, median",164 ng/mL
same,concentration at 12 hours,"[1]; 600 mg PO, fed, median",27.8 ng/mL
same,AUC,"[1]; 600 mg PO, fed, n = 20, read-out: AUC(l), model-based (least square) mean",3530 ng·h/mL
same,AUC,"[1]; 600 mg PO, fed, n = 20, read-out: AUC(tf), model-based (least square) mean",3500 ng·h/mL
same,Cmax,"[1]; 600 mg PO, fed, n = 20, read-out: Cmax, model-based (least square) mean",678 ng/mL
same,IC50,"[2]; n=25, read-out: IC50 for suppression (4-log reduction) of the replicon (converted)",~200 nM
same,IC90,"[2]; n=25, read-out: IC90 for suppression (4-log reduction) of the replicon (converted)",~400 nM
